Measurements taken from patent US20060166934A1, “Composition comprising phytosphingosine derivatives for apoptosis induction” (Tae-Yoon Kim, priority 2002, published 2006).
Read-outs that look alike come from different tables or passages of the source.

Tests used:
[1] = MTT assay, cytotoxicity in human skin cancer cell line; format: cell-based; settings: human, Cell viability
Protocol: (§1) Firstly, the cytotoxicity is measured by the MTT assay. Phytosphingosine (PS), phytosphingosine-HCl (PS-HCl), C6-phytosphingosine (C6-PS), CLA-phytosphingosine (CLA-PS), tetraacetyl phytosphingosine (TAPS), and N-acetyl phytosphingosine (NAPS) are dissolved into DMSO to have the final concentration of 1-100 μM.
(§2) In order to study the effects of the compositions of the present invention on the cytotoxicity in the human keratinocyte cell line HaCaT cells, the cell viability is analyzed by the MTT (3-[4,5-dimethylthiazol-2-yl]-2,5-diphenyltetrazolium bromide) assay. HaCaT cells are supplied by Professor N. Fuseng of German Cancer Research in Germany. HaCaT cells are seeded in a density of 1×10^6 cells in a […] and cultured in DMEM (Dulbecco's Modified Eagle Medium) containing 10% fetal bovine serum (FBS, GIBCO), 100 units/ml penicillin, and 100 μg/ml streptomycin for 48 hours. They are treated with trypsin and 1-2×10^4 cells per well are seeded again in a 96-well plate by using a serum-free culture medium, about 3 hours after which they are cultured by treatment with phytosphingosine derivatives. After they are cultured for 24 hours, the MTT reagent is added at a concentration of 2 mg/ml, cultured for 4 hours, suspended in DMSO after removing the culture medium completely in order to measure O.D. at 540 nm. C2-ceramide is used for comparison.
(§3) In order to study the effects of the compositions of the present invention on the cytotoxicity in A431 cells, human skin cancer cell line, the MTT assay is used. The method of cell culture and MTT assay are the same as those in the above method. C2-ceramide is used for comparison.

[2] = system: A431 cells, human skin cancer cell line; experiment: as above; format: cell-based; settings: human, 24 h
Protocol: as §1, §2, §3

[3] = MTT assay, cytotoxicity in human keratinocyte cell line; format: cell-based; settings: human, Cell viability
Protocol: as §1, §2

[4] = MTT assay, cytotoxicity in immune cells separated from spleen of mice; format: cell-based; settings: BDF, mouse
Protocol: The effect of the composition of the present invention on the cytotoxicity in immune cells (T cells, B cells, macrophages, monocytes, etc.) was examined. The spleen was removed from normal mice (BDF) and single cells were obtained from the spleen by mechanical aggregation method. And mononuclear cells containing T cells, B cells, macrophages and monocytes were isolated from single cells by density gradient centrifugation method using Ficoll Hypaque. Briefly, single cells were treated with PBS and overlayed on Ficoll Hypaque and centrifuged at 1500 rpm for 30 min. After centrifugation, the cells around the boundary of the Ficoll-Hapaque were collected and washed three times with PBS. The isolated cells were cultured for 24 hours in the presence of 1, 10, 50 and 100 μM of NAPS, TAPS, and PS to examine the effect of cytotoxicity, i.e. the degree of proliferation of the cells. C2-ceramide was used as control. The medium used in this experiment was RPMI 1640 suplemented with 10% of FBS and 100 μg/ml of penicillin and streptomycin.

[5] = MTT assay, combined treatment with UVB irradiation; format: cell-based, human; design: Cell viability: unit not given here; settings: human, HaCaT cells, HaCaT, read-out: Cell viability
Protocol: (§4) In order to study the synergistic effect in the cytotoxicity by the cotreatment with administration of the compositions of the present invention and with UVB irradiation, the cell viability is analyzed by MTT assay method in HaCaT cells. On a 100-mm dish, 1×10^6 HaCaT cells are seeded and cultured in DMEM containing 10% fetal bovine serum, 100 units/ml penicillin, and 100 μg/ml streptomycin for 48 hours. They are treated with trypsin, and 1-2×10^4 cells per well are seeded on a 96-well plate again by using a serum-free medium, which is removed after about 3 hours. HaCaT cells are washed with PBS three times, and 3.5 ml of PBS per plate is added. It is then irradiated with 200 J/m^2 of UVB. After irradiation, the medium is replaced with a DMEM medium. Then it is treated with the phytosphingosine derivatives of the present invention, and cultured for 24 hours. After 2 mg/ml of the MTT reagent is added, it is cultured for 4 hours. The medium is removed completely, the cells are suspended in DMSO, and O.D. is measured at 540 nm.

HaCaT cells = experiment: MTT assay, combined treatment with UVB irradiation; format: cell-based, human; design: Cell viability: unit not given here; settings: 1 μM, no UVB, 24 hours, HaCaT
Protocol: as §4

Th1 cells activation = experiment: Mixed leukocyte reaction (MLR), Th1 cells activation by TNBSO3, MTT assay; format: cell-based, mice; settings: MLR with TNBSO3-conjugated stimulator cells, FIG. 4
Protocol: Whether the composition of the present invention has a suppressive effect on the Th1 cells activation which isolate […], IL-12, etc. by reacting with TNBSO3 […] was examined.
The mononuclear cells obtained from spleen of mice as described the above 4 were used for responder cells, and TNBSO3-conjugated cells were used for stimulator cells. The stimulator cells were obtained as follows:
The mononuclear cells were adjusted to be 2×10^7 cells/ml in PBS and the same volume of 20 mM TNBSO3 was added and incubated at 37° C. for 10 min in the dark state. After incubation, the cells wrer washed three times with PBS.
(§5) Each 2×10^5 responder cells and stimulator cells were mixed with each other and cultured for 5 days on the 96-well plate. And RPMI with 10% of serum was used as a medium.
(§6) The above cells were cultured for 24 hours in the presence of 1, 10, 50 and 100 μM of NAPS, TAPS, and PS to examine the proliferation of the cells.
(§7) C2-ceramide was used as control.

[6] = system: Th1 cells activation against allogenic cells (PBMC); experiment: Reactions among allogenic cells, Th1 cells activation, MTT assay; format: cell-based, human; settings: FIG. 5
From the text: Whether the composition of the present invention has a suppressive effect on the Th1 cells activation by allogenic cells in immune reation was examined.
PBMC obtained from different volunteers as described in the above 5 were used for responder cells and stimulator cells respectively. PBMC for stimulator cells were used after X-ray irradiation (3000 rad) to inhibit the proliferation of stimulator cells.
as §5, §6, §7

[7] = MTT assay, cytotoxicity in HUVEC; format: cell-based, human; settings: human
Protocol: as §1, §2
(§8) The MTT assay is used for the above purpose. Primary human umbilical vein endothelial cells are cultured from the human umbilical vein. The method of cell culture and the MTT assay are the same as those in the above. C2-ceramide is used for comparison.

[8] = system: human umbilical vein endothelial cells (HUVEC); experiment: MTT assay, cytotoxicity in HUVEC; format: cell-based; settings: human, 24 h, 30 μM
Protocol: as §1, §2, §8

[9] = MTT assay, combined administration with Vit D3 or calcipotriol; format: cell-based, human; settings: human, HaCaT cells, 1 μM singly, 24 hours, HaCaT; read-out: Cell viability
Protocol: (§9) In order to study the synergistic effect in the cytotoxicity when the compositions of the present invention are administered in combination with Vit D3 or calcipotriol, the cell viability is analyzed by MTT assay method in HaCaT cells human keratinocyte cell line.
(§10) To HaCaT cells, 1 μM of Vit D3 or calcipotriol, or 10 μM each of NAPS and TAPS, is administered singly or in combination with each other, and they are cultured for 24 hours. And the effects of these drugs on the cytotoxicity according to the single or combined administration are observed by MTT assay. C2-ceramide is used for comparison.

[10] = system: HaCaT cells human keratinocyte cell line; experiment: as above; format: cell-based; settings: 1 μM singly, 24 hours
Protocol: as §9, §10

Q: What does the source list for `CCCCCCCCCCCCCC[C@@H](O)[C@@H](O)[C@@H](N)CO` [PS, phytosphingosine]?
A: viability at 24 h, 3 µM [1]: 85 ± 10.7%; viability at 24 h, 50 µM [1]: 2 ± 0.2%; Cell viability ([2]; 10 µM): 30 ± 1.9; cytotoxicity ([2]; 50 μM): 95-98%; viability at 24 h, 1 µM [3]: 97 ± 11.1%; viability at 24 h, 3 µM [3]: 93 ± 3%; viability at 24 h, 10 µM [3]: 86 ± 10.1%; viability at 24 h, 30 µM [3]: 51 ± 9.6%; IC50 at 24 h [4]: ~75 µM; viability at 24 h, 1 µM ([5]; 1 μM + UVB 200 J/m^2, 24 hours): 38 ± 7.9%; viability at 24 h, 3 µM ([5]; 3 μM + UVB 200 J/m^2, 24 hours): 30 ± 3.3%; viability at 24 h, 3 µM ([5]; 3 μM, no UVB, 24 hours): 93 ± 5.5%; viability at 24 h, 5 µM ([5]; 5 μM + UVB 200 J/m^2, 24 hours): 28 ± 2.3%; viability at 24 h, 5 µM ([5]; 5 μM, no UVB, 24 hours): 85 ± 10.6%; viability at 24 h, 10 µM ([5]; 10 μM + UVB 200 J/m^2, 24 hours): 3 ± 0.9%; viability at 24 h, 10 µM ([5]; 10 μM, no UVB, 24 hours): 71 ± 7.6%; Cell viability (HaCaT cells): 133 ± 3.4; concentration showing a suppressive effect on Th1 cells activation (Th1 cells activation): 50 µM; suppressive effect on Th1 cells activation against allogenic cells ([6]; 50 μM): suppress completely; concentration showing a suppressive effect on Th1 cells activation against allogenic cells [6]: 50 μM; viability at 24 h, 3.5 µM [7]: 64 ± 4.7%; viability at 24 h, 7 µM [7]: 19 ± 1.8%; viability at 24 h, 15 µM [7]: 14 ± 0.9%; viability at 24 h, 30 µM [7]: 13 ± 1%; cytotoxicity [8]: 86-91%

Q: Which viability at 24 h, 1 µM [9] does the source give for `C=C1/C(=C\C=C2/CCC[C@]3(C)[C@@H]([C@H](C)/C=C/[C@@H](O)C4CC4)CC[C@@H]23)C[C@@H](O)C[C@@H]1O` [calcipotriol, reference compound] here?
A: Its viability at 24 h, 1 µM is 77 ± 5%.

Q: And the toxicity [10]?
A: The toxicity was 23%.
